Assay results reported in patent US20220143045A1, “PROGESTERONE RECEPTOR ANTAGONIST DOSAGE FORM” (BAYER PHARMA AKTIENGESELLSCHAFT, priority 2013, published 2022).
Where “and” joins values, the source holds several entries; their conditions need not be identical. Equal values may be shown once.

What was measured:
Assay type in all cases: in vivo, human
healthy female subjects [1] = test: Dose-effect of 84 days treatment: bleeding pattern (non-bleeding rate), daily self-assessment
Excerpt: • 1. Healthy female subjects, sterilized by tubal ligation • 2. Age at screening: 18-45 years • 3. Body mass index (BMI) at screening: ≥18 and ≤32 kg/m^2 • 4. At least 3 consecutive regular menstrual cycles with a cycle length of 24-35 days before first screening examination according to the subject's history • 5. Absence of clinically relevant abnormal findings in the pre-treatment endometrial biopsy • 6. Adequate venous access (frequent blood sampling)
The subject had to start the intake of the study drugs on the first or second day of menstrual bleeding after the pre-treatment cycle. The pre-treatment cycle started on the first day of the subject's menstrual bleeding after screening examinations had shown that the subject was eligible for further participation. After the pre-treatments cycle treatment was started. The treatment period started with the first and ended with the last intake of compound 1. For each intake day the subject received one bottle containing 4 tablets. The number of tablets taken and the intake time had to be documented in the diary.
The evaluation of bleeding pattern was based on a daily self-assessment of the bleeding intensity by the subject. These assessments were categorized as defined below. The subjects were provided with an explanation of the categories in local language, and were asked to document the bleeding intensity in their diaries accordingly (one entry per day).
Administration of compound 1 occurred during 84 days (multiple doses administration).

healthy female subjects [2] = test: Return of bleeding after end of treatment (84 days); conditions: for Number of days until first bleeding after end of treatment (mean ± SD) / Number of days until first bleeding after end of treatment (min − max): PPS
Excerpt: (§1) As described in example 2.
The first day of bleeding after the end of the treatment was marked.

healthy female subjects [3] = test: Endometrial thickness by transvaginal ultrasound during treatment; conditions: 2 mg, 84 days, versus other dosages (FIG. 2)
Protocol: as §1
The endometrial thickness was measured in the medio-sagittal section as double-layer in millimeters using transvaginal ultrasound.

healthy female subjects [4] = test: Ovulation inhibition: follicle size, estradiol (E2), progesterone (P)
Excerpt: Protocol: Randomized Study population of healthy female subjects as described in example 2 above.
Blood samples were obtained from healthy female subjects for the determination of Estradiol (E2), Progesterone (P), luteinizing hormone (LH) and follicle stimulating hormone (FSH) in serum and taken at the same time points as listed below during the pre-treatment cycle, the treatment and follow-up cycle. Transvaginal ultrasound (TVU) was used to monitor ovarian follicular growth during pretreatment (days 9 and 21), treatment (days 7, 14, 21, 28, 35, 42, 49, 56, 63, 70, 77, 84) and follow-up cycle (days 9 and 21).

[5] = 0.5 mg once daily per os, 84 days
[6] = 0.1 mg, n = 11, treatment period
[7] = 0.1 mg, n = 11, treatment period, (third category)
[8] = 0.5 mg, n = 11, treatment period
[9] = 0.5 mg, n = 11, treatment period, (third category)
[10] = 1 mg, n = 12, treatment period, (third category)
[11] = 2 mg, n = 12, treatment period, (third category)
[12] = 5 mg, n = 11, treatment period, (third category)

## C[C@]12C[C@H](c3ccc(S(C)(=O)=O)cc3)C3=C4CCC(=O)C=C4CC[C@H]3[C@@H]1CC[C@@]2(O)C(F)(F)C(F)(F)F [compound 1, (11β,17β)-17-Hydroxy-11-[4-(methylsulphonyl)phenyl]-17-(pentafluoroethyl)estra-4,9-dien-3-one]
Healthy female subjects [1]; [5]
  number of subjects with no further bleeding during the treatment period (out of 11): 3
  subjects with no further bleeding during the treatment period: 27%
Healthy female subjects [1]; 0.1-5 mg once daily per os, 84 days
  number of days of bleeding during the treatment period: marked and dose-dependent reduction
Healthy female subjects [1]; 84 days treatment, posterior of non-bleeding rate (FIG. 1)
  dosage at which 50% of dose-dependent reduction of bleeding is observed: 0.7 mg
Healthy female subjects [1]; from 2 mg up to 5 mg, 84 days
  saturation of non-bleeding rate: around 95%
Healthy female subjects [1]; healthy subjects, dosage of 2 mg
  amenorrhea (non-bleeding): 92.5%
Healthy female subjects [2]; 0.1 mg, n = 11
  Number of days until first bleeding after end of treatment (mean ± SD): 12.2 ± 9.9 days
  Number of days until first bleeding after end of treatment (min − max): (3 − 35) days
Healthy female subjects [2]; 0.5 mg, n = 11
  Number of days until first bleeding after end of treatment (mean ± SD): 14.8 ± 10.2 days
  Number of days until first bleeding after end of treatment (min − max): ( 1 − 28) days
Healthy female subjects [2]; 1 mg, n = 10
  Number of days until first bleeding after end of treatment (mean ± SD): 20.3 ± 6.2 days
  Number of days until first bleeding after end of treatment (min − max): (8 − 28) days
Healthy female subjects [2]; 2 mg, n = 12
  Number of days until first bleeding after end of treatment (mean ± SD): 25 days and 25.8 ± 11.1 days
  Number of days until first bleeding after end of treatment (min − max): (9 − 52) days
Healthy female subjects [2]; 2 mg, single subject
  delayed return of bleeding after treatment, one subject: about 52 days
Healthy female subjects [2]; 5 mg, n = 11
  Number of days until first bleeding after end of treatment (mean ± SD): 20.9 ± 10.9 days
  Number of days until first bleeding after end of treatment (min − max): (1 − 38) days
Healthy female subjects [3]
  maximum thickness of the endometrium within treatment epoch: lower maximum thickness of the endometrium compared to other dosages
Healthy female subjects [4]; [6]
  number of subjects with Follicle size ≤ 13 mm: 1
  percentage of subjects with Follicle size ≤ 13 mm: 9%
Healthy female subjects [4]; [7]
  number of subjects with Follicle size > 13 mm + Estradiol > 27.2 pg/mL + Progesterone < 1.57 μg/L: 10
  percentage of subjects with Follicle size > 13 mm + Estradiol > 27.2 pg/mL + Progesterone < 1.57 μg/L: 91%
Healthy female subjects [4]; [8]
  number of subjects with Follicle size > 13 mm + Estradiol > 27.2 pg/mL + Progesterone < 1.57 μg/L: 6
  percentage of subjects with Follicle size > 13 mm + Estradiol > 27.2 pg/mL + Progesterone < 1.57 μg/L: 55%
Healthy female subjects [4]; [9]
  number of subjects with Follicle size > 13 mm + Estradiol > 27.2 pg/mL + Progesterone < 1.57 μg/L: 5
  percentage of subjects with Follicle size > 13 mm + Estradiol > 27.2 pg/mL + Progesterone < 1.57 μg/L: 45%
Healthy female subjects [4]; 1 mg, n = 12, treatment period
  number of subjects with Follicle size > 13 mm + Estradiol > 27.2 pg/mL + Progesterone < 1.57 μg/L: 9
  number of subjects with Follicle size ≤ 13 mm: 1
  percentage of subjects with Follicle size > 13 mm + Estradiol > 27.2 pg/mL + Progesterone < 1.57 μg/L: 75%
  percentage of subjects with Follicle size ≤ 13 mm: 8%
Healthy female subjects [4]; [10]
  number of subjects with Follicle size > 13 mm + Estradiol > 27.2 pg/mL + Progesterone < 1.57 μg/L: 2
  percentage of subjects with Follicle size > 13 mm + Estradiol > 27.2 pg/mL + Progesterone < 1.57 μg/L: 17%
Healthy female subjects [4]; 2 mg, n = 12, treatment period
  number of subjects with Follicle size > 13 mm + Estradiol > 27.2 pg/mL + Progesterone < 1.57 μg/L: 11
  percentage of subjects with Follicle size > 13 mm + Estradiol > 27.2 pg/mL + Progesterone < 1.57 μg/L: 92%
Healthy female subjects [4]; [11]
  number of subjects with Follicle size > 13 mm + Estradiol > 27.2 pg/mL + Progesterone < 1.57 μg/L: 1
  percentage of subjects with Follicle size > 13 mm + Estradiol > 27.2 pg/mL + Progesterone < 1.57 μg/L: 8%
Healthy female subjects [4]; 5 mg, n = 11, treatment period
  number of subjects with Follicle size > 13 mm + Estradiol > 27.2 pg/mL + Progesterone < 1.57 μg/L: 9
  number of subjects with Follicle size ≤ 13 mm: 1
  percentage of subjects with Follicle size > 13 mm + Estradiol > 27.2 pg/mL + Progesterone < 1.57 μg/L: 82%
  percentage of subjects with Follicle size ≤ 13 mm: 9%
Healthy female subjects [4]; [12]
  number of subjects with Follicle size > 13 mm + Estradiol > 27.2 pg/mL + Progesterone < 1.57 μg/L: 1
  percentage of subjects with Follicle size > 13 mm + Estradiol > 27.2 pg/mL + Progesterone < 1.57 μg/L: 9%
Healthy female subjects [4]; dosages ≥0.5 mg, 84 days
  ovulation during treatment (progesterone value <1.57 μg/L): No ovulation occurred in most of the subjects
